Reference: US20230279021A1, “POLYMORPHS OF A GABAA ALPHA5 AGONIST AND METHODS OF USING IN THE TREATMENT OF COGNITIVE IMPAIRMENT” (AGENEBIO, INC., priority 2020, published 2023)
“Also recorded” adds a separate entry of the source.

Legend:
[1] = Dynamic vapor sorption (DVS) hygroscopicity; assay type: physicochemical; conditions: for hygroscopicity (DVS isotherm): 5% to 95% RH; for form of material recovered from the DVS experiment by XRPD: post DVS
Method: Dynamic vapor sorption data was collected on a Surface Measurement System DVS Intrinsic instrument. The samples were not dried prior to analysis. Sorption and desorption data were collected over a range from 5% to 95% RH in 10% RH increments under a nitrogen purge. The equilibrium criteria used for the analyses were 0.001 dm/dt weight change in 5 minutes with a minimum step time of 30 minutes and maximum equilibration time of 180 minutes with a 3-minute data logging interval. Data were not corrected for the initial moisture content of the sample. The samples were identified as having low, limited or significant hygroscopicity based on the definitions in the below table.

[2] = Thermal decomposition by DSC; assay type: physicochemical; conditions: 10° C./min
Method: DSC was performed using a Mettler-Toledo DSC3+ differential scanning calorimeter. A tau lag adjustment is performed with indium, tin, and zinc. The temperature and enthalpy are adjusted with octane, phenyl salicylate, indium, tin and zinc. The adjustment is then verified with octane, phenyl salicylate, indium, tin, and zinc. The sample was placed into a hermetically sealed aluminum DSC pan, the weight was accurately recorded, and the sample was inserted into the DSC cell. A weighed aluminum pan configured as the sample pan was placed on the reference side of the cell. The pan lid was pierced prior to sample analysis. The samples were analyzed from −25° C. to 250° C. at 10° C./min.

[3] = Solid-state stability of crystalline forms on storage or heating (XRPD); assay type: physicochemical
Method: XRPD patterns were collected with a PANalytical X'Pert PRO MPD or a PANalytical Empyrean diffractometer using an incident beam of Cu radiation produced using an Optix long, fine-focus source. An elliptically graded multilayer mirror was used to focus Cu Kα X-rays through the specimen and onto the detector. Prior to the analysis, a silicon specimen (NIST SRM 640e) was analyzed to verify the observed position of the Si 111 peak is consistent with the NIST-certified position. A specimen of the sample was sandwiched between 3-μm-thick films and analyzed in transmission geometry. A beam-stop, short antiscatter extension, and antiscatter knife edge were used to minimize the background generated by air. Soller slits for the incident and diffracted beams were used to minimize broadening from axial divergence. Diffraction patterns were collected using a scanning position-sensitive detector (X'Celerator) located 240 mm from the specimen and Data Collector software v. 5.5. […] All images have the instrument labeled as X'Pert PRO MPD regardless of the instrument used.

[4] = Competitive interconversion slurry experiments (relative thermodynamic stability of crystalline forms); assay type: physicochemical; conditions: solvent-mediated interconversion slurries, ambient temperature (Form E also 55° C. and 77° C.)
Method: Interconversion experiments were performed to identify the most thermodynamically stable anhydrous form of Compound 1 (Table 9). […] The choice of solvent affects the kinetics of polymorph conversion and not the thermodynamic relationship between polymorphic forms.
Various combinations of Forms B, E, F, and Material D were slurried with Form A at ambient and elevated temperatures (for experiments involving Form E). Different solvent systems were used and included a variety of water activities. Saturated solutions were generated and then added to the mixtures composed of approximately equivalent quantities of the forms. The mixtures were slurried for a particular duration of time and the solids harvested and analyzed by XRPD.

aged-impaired rats [5] = assay: Radial Arm Maze behavioral task, acute PO treatment; assay type: in vivo, Long-Evans rats; conditions: 10 mg/kg PO, 5-hr retention delay, compared to vehicle control
Method: (§1) Aged, male Long-Evans rats were obtained at 9 months of age from Charles River Laboratories (Raleigh, N.C.) and housed in a vivarium at The Johns Hopkins University until background behavioral assessment in a water maze at 24 months of age. Young rats obtained from the same source were housed in the same vivarium and were included in the background assessment at 6 months of age but were not used for drug testing in a radial arm maze task. All rats were individually housed at 25° C. and maintained on a 12 h light/dark cycle. Food and water were provided ad libitum unless noted otherwise. The rats were examined for health and pathogen-free status throughout the experiments, as well as necropsies at the time of killing. All procedures were in accordance with NIH guidelines using protocols approved by the Institutional Animal Care and Use Committee at The Johns Hopkins University.
All rats were screened in a standardized assessment of spatial cognition before the commencement of drug studies. The background assessment used a well-established Morris water maze protocol as described in detail elsewhere (Gallagher et al, 1993). Briefly, the rats were trained for 8 days (three trials per day) to locate a camouflaged escape platform that remained at the same location throughout training in a water maze. […]

[6] = pKa of Compound 1 free base; assay type: physicochemical
aged-impaired rats [7] = assay: Morris Water Maze behavioral task, acute and chronic IP treatment; assay type: in vivo, Long-Evans rats; conditions: 10 mg/kg IP, compared to vehicle control
Method: as §1
All rats were screened in a standardized assessment of spatial cognition before the commencement of drug studies. […]
Rats were trained and tested in a novel water maze environment to assess the effect of the treatments. […] An hour after the last training trial, rats were given a probe test in the absence of the escape platform (free swim) to assess the memory of the platform location as measured by time spent searching at the target location. […]

With COCc1nnc2n1Cc1c(C#Cc3cnc(OC)s3)ncn1-c1ccc(Cl)cc1-2 [Form F] the “hygroscopicity (DVS isotherm)” value [1] was “limited hygroscopicity”, the weight gain ([1]; DVS, from 5-95% RH) was 1.8% and the “weight loss upon desorption” value ([1]; DVS, significant hysteresis) was 1.5%. For the same compound, the “form of material recovered from the DVS experiment by XRPD” value [1] was “still Form F”, the “DSC exotherms following dehydration endotherm (decomposition upon dehydration)” value [2] was “above 120 °C” and the stability under vacuum ([3]; 5 days under vacuum at ambient temperature) was “unchanged”. The “stability upon exposure to 100° C.” value ([3]; exposure to 100° C. (several minutes, XRPD)) was “dehydrate; also recorded: loss of crystallinity”.

For COCc1nnc2n1Cc1c(C#Cc3cnc(OC)s3)ncn1-c1ccc(Cl)cc1-2 [Form E], the “DSC exotherm due to decomposition, onset” value [2] was about 201 °C and the relative thermodynamic stability [4] was “metastable relative to Form A”.

In the case of COCc1nnc2n1Cc1c(C#Cc3cnc(OC)s3)ncn1-c1ccc(Cl)cc1-2 [Compound 1, 5-((3-chloro-7-(methoxymethyl)-9H-benzo[f]imidazo[1,5-a][1,2,4]triazolo[4,3-d][1,4]diazepin-10-yl)ethynyl)-2-methoxythiazole], the “number of errors in radial arm maze retention test” value (aged-impaired rats [5]) is reported as “fewer errors”, the pKa [6] is reported as 1.16 ± 0.04 and the “time spent in target quadrant of the Morris Water Maze” value (aged-impaired rats [7]) is reported as “more time in the target quadrant”.

In the case of COCc1nnc2n1Cc1c(C#Cc3cnc(OC)s3)ncn1-c1ccc(Cl)cc1-2 [Form C], the “DSC exotherm due to decomposition, onset” value [2] is reported as 190 °C, the “stability under ambient conditions” value ([3]; 9 weeks under ambient conditions) is reported as “unchanged” and the “stability upon overnight exposure to 80° C.” value ([3]; overnight exposure to 80° C.) is reported as “desolvate to Form B”.

With COCc1nnc2n1Cc1c(C#Cc3cnc(OC)s3)ncn1-c1ccc(Cl)cc1-2 [Material D] the “DSC exotherm due to decomposition, onset” value [2] was about 174 °C, the “stability on ambient storage (XRPD)” value ([3]; 7 weeks of ambient storage, mixture with Form A) was “still remained” and the relative thermodynamic stability [4] was “metastable relative to Form A”.

For COCc1nnc2n1Cc1c(C#Cc3cnc(OC)s3)ncn1-c1ccc(Cl)cc1-2 [Form B], the “DSC exotherm due to decomposition, onset” value [2] was “about 190 °C” and the relative thermodynamic stability [4] was “metastable relative to Form A”.

In the case of COCc1nnc2n1Cc1c(C#Cc3cnc(OC)s3)ncn1-c1ccc(Cl)cc1-2 [Form A], the “hygroscopicity (DVS isotherm)” value [1] is reported as “limited hygroscopicity; also recorded: low hygroscopicity”, the “weight change through the sorption/desorption cycle” value ([1]; DVS, no hysteresis) is reported as about 0.3% and the “form of material recovered from the DVS experiment by XRPD” value [1] is reported as “same as the starting material”. The “DSC exotherm due to decomposition, onset” value [2] was “about 207 °C” and the relative thermodynamic stability [4] was “more thermodynamically stable than Form B and Material D at ambient temperature and more thermodynamically stable than Form E at ambient temperature, 55° C., and 77 °C”.
